Patent publication US10738041B2, “Ferroportin inhibitors” (Vifor (International) AG, priority 2015, dated 2020)
Like-named read-outs stand apart in the source and are kept apart here.

How the values were obtained:
[1] = target: T1, human Fpn-GFP fusion (Homo sapiens, UniProt Q9NP59); assay: Inhibition of ferroportin mediated iron export activity in an iron response assay (BLAzer); type: cell-based
T1 construct: expressed in transfected cells; host or cells: HEK-293 cell line #354 (derivative of HEK-293 Tet-ON Advanced, Clontech)
T1 sequence (Q9NP59 1-571): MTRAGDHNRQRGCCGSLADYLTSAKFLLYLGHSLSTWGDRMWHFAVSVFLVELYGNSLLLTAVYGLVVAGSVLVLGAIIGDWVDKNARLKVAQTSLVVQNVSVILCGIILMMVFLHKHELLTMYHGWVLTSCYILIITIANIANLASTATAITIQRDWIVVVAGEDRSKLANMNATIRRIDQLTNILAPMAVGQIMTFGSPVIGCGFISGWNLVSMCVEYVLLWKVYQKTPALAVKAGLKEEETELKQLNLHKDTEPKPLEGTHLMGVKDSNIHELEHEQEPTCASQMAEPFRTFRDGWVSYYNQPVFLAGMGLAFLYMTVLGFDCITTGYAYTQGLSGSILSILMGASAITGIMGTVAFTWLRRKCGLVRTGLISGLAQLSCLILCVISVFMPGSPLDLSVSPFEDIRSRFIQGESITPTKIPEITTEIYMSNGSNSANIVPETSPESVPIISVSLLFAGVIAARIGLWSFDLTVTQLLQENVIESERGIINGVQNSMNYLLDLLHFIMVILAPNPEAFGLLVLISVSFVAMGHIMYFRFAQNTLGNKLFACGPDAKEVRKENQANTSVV
Source text: Intracellular iron levels are indirectly measured in this assay by monitoring the activity of a beta-lactamase (BLA) reporter gene fused to the human ferritin promoter and the associated iron regulatory element (IRE) contained within the 5′ untranslated region of the ferritin mRNA. Expression of ferroportin (Fpn) in such a cell line leads to iron efflux and lower iron levels as reflected by lower activity of the reporter gene. On the other hand, inhibition of Fpn-mediated iron efflux results in elevated cellular iron levels which is detected as increased reporter gene activity. Small molecular weight Fpn inhibitor compounds were tested for dose-dependent effects in this in vitro iron response assay as described below.
The HEK-293 cell line #354 was generated by stable integration of (i) a human Fpn-GFP fusion construct inserted in a derivative of the doxycycline-inducible pTRE-Tight-BI plasmid (Clontech, Cat. 631068) and (ii) a human ferritin promoter-BLA reporter gene into a derivative of the HEK-293 Tet-ON Advanced cell line (Clontech). […] After overnight incubation, 10 μl/well of dilution series of the test compounds were added in quadruplicates and plates were further incubated overnight at 37° C. with 5% CQ. Cells were washed 3 times with HBSS leaving 25 μl per well. BLA activity was detected by adding 5 μl/well of the GeneBlazer reagent CCF4-AM (Invitrogen, Cat. K1085) to the cells. After incubation of the plates in the dark at 18° C. for 60 min., blue and green fluorescence signals were measured in a Safre2 fluorescence plate reader (Tecan) with excitation at 410 nm and emissions at 458 nm (blue) and 522 nm (green). The ratio of blue/green fluorescence as a measure for BLA activity was calculated and EC50 values were determined with the calculated blue/green fluorescence ratios as described for the hepcidin internalization assay.

[2] = target: T1, human Fpn-GFP fusion; assay: Ferroportin Internalization and Degradation Assay (FACS); type: cell-based
Protocol: Growing HEK-293 #354 cells in doxycycline containing media induced expression of human Fpn-GFP fusion protein on the cell surface. […] Small molecular weight Fpn inhibitor compounds were tested for dose-dependent effects on the Fpn-GFP mean fluorescence intensity (MFI) on HEK-293 cell line #354, as described below. HEK #354 cells were harvested from ca. 80% confluent cultures, seeded at 0.6×10^6 (cells/ml in DMEM/F12 GlutaMAX™ medium (Invitrogen, Cat. 31331-028) containing 10% FBS (Clontech, Cat. 631106), 1% Penicillin-Streptomycin (Invitrogen, Cat. 15140-122), 200 μg/ml Hygromycin B (Invitrogen, Cat. 10687-010), Blasticidin 5 μg/ml, (Invitrogen, Cat. R210-01), 4 μg/ml doxycycline (Clontech, Cat. 631311), 50 μl per well of 384 well plates (Greiner; Cat. 781091) and grown at 37° C. with 5% CQ. After overnight incubation, 10 μl/well of dilution series of the test compounds were added in quadruplicates and plates were further incubated overnight at 37° C. with 5% CO2. Cells were washed once with FACS buffer (PBS containing 1% FBS, 2 mM EDTA and 0.05% NaN3), harvested in FACS buffer with 0.5 μg/ml propidium iodide (Sigma, Cat. P4864) and analyzed in a flow cytometer (CANTO™ II, BD Biosciences) equipped with high throughput sampler. Live HEK #354 cells were gated as propidium iodide negative population and analyzed for expression of Fpn-GFP.

[3] = target: T2, human Fpn (Homo sapiens, UniProt Q9NP59); assay: Biophysical Ferroportin-Hepcidin Binding Assay (fluorescence polarization)
T2 construct: FLAG (C); made in house; host or cells: Pichia pastoris
T2 sequence (Q9NP59 1-571): T1 sequence (Q9NP59 1-571)
How it was run: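 FP readout: a dose-dependent drop in TMR-hepcidin polarization (mP, from parallel and perpendicular emission) marked blocked binding to FLAG-tagged human Fpn purified from Pichia pastoris. Final levels were 1 μM Fpn and 20 nM TMR-hepcidin, with compound dilutions in duplicate, incubated 90 min at room temperature.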

[4] = average of multiple measurements, HEK-293 cell line #354, read-out: BLAzer EC50
[5] = average of multiple measurements; Fpn-GFP MFI, HEK-293 cell line #354, FACS
[6] = average of multiple measurements, 1 μM human Fpn, 20 nM TMR-hepcidin, read-out: FP IC50

DC50 ([2]; average of multiple measurements; Fpn-GFP MFI, HEK-293 cell line #354, FACS; read-out: EC50 ferroportin internalization and degradation) [nM]	Structure (SMILES)	EC50 [1, 4] [nM]	EC50 [2, 5] [nM]	IC50 [3, 6] [nM]	EC50 [1] [nM]	DC50 ([2]; read-out: EC50 ferroportin internalization and degradation; average of multiple measurements; Fpn-GFP MFI, HEK-293 cell line #354, FACS) [nM]	IC50 [3] [nM]
	O=C(NCc1ncccc1F)c1csc(CCN(CCc2nc3ccccc3[nH]2)CCc2nc3ccccc3[nH]2)n1 [Example 152]	170	71	23			
	O=C(NCc1ncccc1F)c1coc(C2CN(CCc3nc4ccccc4[nH]3)C2)n1 [Example 208]	500	150	19			
	O=C(NCc1ncccc1F)c1coc(CCNCCc2nc3c(Cl)cccc3[nH]2)n1 [Example 226]	2340	490	26			
	Cc1oc(CCNCCc2nc3ccccc3[nH]2)nc1C(=O)NCc1ncccc1F [Example 230]	6380	950	58			
	O=C(NCc1cccnn1)c1nc(CCNCc2nc3ccccc3[nH]2)sc1Cl [Example 161]	17200	5300	260			
	O=C(NCc1ncccc1F)c1coc(CCNCCc2nc3c(F)cccc3[nH]2)n1 [Example 228]	2120	460	21			
	O=C(NCc1cccnn1)c1csc(CCNCCc2nc3ccccc3[nH]2)n1 [Example 122]	4330	3020	214			
	O=C(NC1CCc2cccnc21)c1csc(CCNCCc2nc3ccccc3[nH]2)n1 (centres unmarked) [Example 158]	620	325	41			
	Cc1cnccc1CNC(=O)c1csc(CCNCc2nc3ccccc3[nH]2)n1 [Example 90]	4030		418			
	O=C(NCc1ncccc1Cl)c1cnn(CCNCCc2nc3ccccc3[nH]2)c1 [Example 144]	470	43	73			
	O=C(NCc1ncccc1F)c1csc(CCNCCc2nc3cc(F)ccc3[nH]2)n1 [Example 120]	1600	530	71			
	O=C(NCc1ncccc1F)c1csc(CCNCCc2nc3c(F)cccc3[nH]2)n1 [Example 243]	1400	510	34			
	O=C(NCc1ncccc1F)c1nc(CCNCc2nc3ccccc3[nH]2)sc1Cl [Example 151]	720	523	89			
	O=C(NCc1ncc(F)cc1F)c1csc(CCNCCc2nc3ccccc3[nH]2)n1 [Example 116]	2790	590	58			
	O=C(NCc1ncccc1F)c1ncn(CCNCc2nc3ccccc3[nH]2)n1 [Example 169]	8230	4120	540			
	O=C(NCc1ncccc1F)c1nc(CCNCCc2nc3ccccc3[nH]2)sc1Cl [Example 154]	740	130	30			
	O=C(NCc1ncccc1F)c1coc(CCNCCc2nc3ccccc3[nH]2)n1 [Example 127]	420	81	23			

DC50 ([2]; average of multiple measurements; Fpn-GFP MFI, HEK-293 cell line #354, FACS; read-out: EC50 ferroportin internalization and degradation) [nM]	Structure (SMILES)	EC50 [1, 4] [nM]	EC50 [2, 5] [nM]	IC50 [3, 6] [nM]	EC50 [1] [nM]	DC50 ([2]; read-out: EC50 ferroportin internalization and degradation; average of multiple measurements; Fpn-GFP MFI, HEK-293 cell line #354, FACS) [nM]	IC50 [3] [nM]
	O=C(NC1CCc2cccnc21)c1csc(CCNCc2nc3ccccc3[nH]2)n1 (centres unmarked) [Example 39]	2900		1340			
	O=C(NCc1ncccc1Cl)c1coc(CCNCc2nc3ccccc3[nH]2)n1 [Example 141]	1110	290	49			
	O=C(NCc1ncccc1F)c1csc(CNCCc2nc3ccccc3[nH]2)n1 [Example 118]	2690	4910	250			
	O=C(NCc1ncccc1F)c1cnn(CCNCCc2nc3ccccc3[nH]2)c1 [Example 111]	620	75	51			
	O=C(NCc1ncccc1F)c1cncc(C2CN(CCc3nc4ccccc4[nH]3)C2)c1 [compound 237]	2460		66			
	O=C(NCc1ncccc1F)c1coc(CCNCCc2nc3cc(F)ccc3[nH]2)n1 [Example 250]	460	600	19			
	O=C(NCc1ccccn1)c1coc(CCNCc2nc3ccccc3[nH]2)n1 [Example 137]	5750	11100	1040			
	O=C(NCc1ncccc1F)c1coc(C2CN(CCc3nc4c(F)cccc4[nH]3)C2)n1 [Example 239]	880	320	38			
	O=C(NCc1ncccc1F)c1csc(CCNCCc2nc3ccccc3[nH]2)n1 [Example 94]	530	220	44			
	O=C(NCc1ncccc1Cl)c1csc(CCNCc2nc3ccccc3[nH]2)n1 [Example 82]	760	689	374			
	CC[C@H](C)[C@@H]1NC(=O)[C@@H](NC(=O)[C@@H](NC(=O)[C@@H]2CCCN2C(=O)[C@H](Cc2ccccc2)NC(=O)[C@H](Cc2c[nH]cn2)NC(=O)[C@@H](NC(=O)[C@@H](N)CC(=O)O)[C@@H](C)O)[C@@H](C)CC)CSSC[C@@H](C(=O)N[C@@H](CCCCN)C(=O)N[C@H](C(=O)O)[C@@H](C)O)NC(=O)[C@@H]2CSSC[C@@H]3NC(=O)[C@@H]4CSSC[C@H](NC(=O)[C@H](Cc5ccccc5)NC1=O)C(=O)N[C@@H](CSSC[C@H](NC(=O)[C@H](CCCCN)NC(=O)[C@H](CO)NC(=O)[C@H](CCCNC(=N)N)NC(=O)[C@H](Cc1c[nH]cn1)NC3=O)C(=O)NCC(=O)N[C@@H](CCSC)C(=O)N2)C(=O)NCC(=O)N4 [hepcidin, reference compound]				96 ± 63	4 ± 2	370 ± 67
	O=C(NCc1ncccc1F)c1csc(CCCNCc2nc3ccccc3[nH]2)n1 [Example 134]	4090	5190	970			
	O=C(NCc1ncccc1F)c1coc(CCNCc2nc3ccccc3[nH]2)n1 [Example 126]	1260	757	120			
	O=C(NCc1ncccc1Cl)c1cnn(CCNCc2nc3ccccc3[nH]2)c1 [Example 138]	1720	678	160			
	O=C(NCc1ncccc1F)c1ncn(CCNCCc2nc3ccccc3[nH]2)n1 [Example 181]	3720	930	89			
1830	O=C(NCc1ncccc1F)c1cccc(CNCCc2nc3ccccc3[nH]2)c1 [Example 224]	8200		201			
	O=C(NCc1ccccn1)c1csc(CCNCc2nc3ccccc3[nH]2)n1 [Example 12]	8270		860			
